What was measured:
Assay type in all cases: in vivo
[1] = tested on: barnyardgrass (Echinochloa crus-galli); experiment: Test A pre-/postemergence: barnyardgrass; conditions: for Barnyardgrass plant response rating: Postemergence; for Plant response rating, Barnyardgrass: Preemergence
Procedure, shortened: (§1)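 Injury was scored visually on a 0 (no effect) to 100 (complete control) scale versus untreated controls roughly ten days after treatment in the greenhouse. Compounds, formulated in surfactant-containing non-phytotoxic solvent, went on as soil-directed preemergence spray or postemergence to one- to two-leaf plants 2–10 cm tall.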

[2] = tested on: crabgrass, large (large crabgrass, Digitaria sanguinalis); experiment: Test A pre-/postemergence: crabgrass, large; conditions: for Crabgrass, Large plant response rating: Postemergence; for Plant response rating, Crabgrass, Large: Preemergence
Procedure, shortened: as §1

[3] = tested on: foxtail, giant (giant foxtail, Setaria faberii); experiment: Test A pre-/postemergence: foxtail, giant; conditions: for Foxtail, Giant plant response rating: Postemergence; for Plant response rating, Foxtail, Giant: Preemergence
Procedure, shortened: as §1

[4] = tested on: morningglory (Ipomoea spp.); experiment: Test A pre-/postemergence: morningglory; conditions: for Morningglory plant response rating: Postemergence; for Plant response rating, Morningglory: Preemergence
Procedure, shortened: as §1

[5] = tested on: pigweed (Amaranthus retroflexus); experiment: Test A pre-/postemergence: pigweed; conditions: for Pigweed plant response rating: Postemergence; for Plant response rating, Pigweed: Preemergence
Procedure, shortened: as §1

[6] = tested on: velvetleaf (Abutilon theophrasti); experiment: Test A pre-/postemergence: velvetleaf; conditions: for Velvetleaf plant response rating: Postemergence; for Plant response rating, Velvetleaf: Preemergence
Procedure, shortened: as §1

[7] = tested on: wheat (Triticum aestivum); experiment: Test A pre-/postemergence: wheat; conditions: for Wheat plant response rating: Postemergence; for Plant response rating, Wheat: Preemergence
Procedure, shortened: as §1

corn (Zea mays) = experiment: Test A pre-/postemergence: corn; conditions: for Corn plant response rating: Postemergence; for Plant response rating, Corn: Preemergence
Procedure, shortened: as §1

rice (Oryza sativa) = experiment: Test C flooded paddy test: rice; conditions: scale 0 to 100 (0 no effect, 100 complete control)
Procedure, shortened: (§2)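 Plants were grown to the 2-leaf stage, pots flooded to 3 cm above soil, and test compounds applied directly to the paddy water, with that depth held throughout. After 13 to 15 days in a greenhouse, injury was visually rated against controls on a 0 (no effect) to 100 (complete control) scale.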

[8] = tested on: sedge, umbrella (small-flower umbrella sedge, Cyperus difformis); experiment: Test C flooded paddy test: sedge, umbrella; conditions: scale 0 to 100 (0 no effect, 100 complete control)
Procedure, shortened: as §2

[9] = tested on: ducksalad (Heteranthera limosa); experiment: Test C flooded paddy test: ducksalad; conditions: scale 0 to 100 (0 no effect, 100 complete control)
Procedure, shortened: as §2

[10] = tested on: barnyardgrass (Echinochloa crus-galli); experiment: Test C flooded paddy test: barnyardgrass; conditions: scale 0 to 100 (0 no effect, 100 complete control)
Procedure, shortened: as §2

[11] = 125 g ai/ha, 0 to 100 scale, 0 is no effect, 100 is complete control
[12] = 500 g ai/ha, visual rating on 0 to 100 scale (0 no effect, 100 complete control), approximately ten days
[13] = 125 g ai/ha, 0 to 100 scale (0 no effect, 100 complete control)
[14] = 500 g ai/ha, 0 to 100 scale, 0 is no effect, 100 is complete control
[15] = Flood (flooded paddy test), 62 g ai/ha, visual rating after 13 to 15 days
[16] = Flood (flooded paddy test), 125 g ai/ha, visual rating after 13 to 15 days
[17] = Flood (flooded paddy test), 250 g ai/ha, visual rating after 13 to 15 days

Cc1nn(-c2ccc(C(F)(F)F)cc2)nc1Oc1cnn(CC(F)(F)F)c1 [Compound 74]
0: Barnyardgrass plant response rating [1, 11] | Barnyardgrass plant response rating [1, 12] | Plant response rating, Barnyardgrass [1, 13] | Plant response rating, Barnyardgrass [1, 14] | Crabgrass, Large plant response rating [2, 11] | Crabgrass, Large plant response rating [2, 12] | Plant response rating, Crabgrass, Large [2, 13] | Plant response rating, Crabgrass, Large [2, 14] | Foxtail, Giant plant response rating [3, 11] | Foxtail, Giant plant response rating [3, 12] | Plant response rating, Foxtail, Giant [3, 13] | Plant response rating, Foxtail, Giant [3, 14] | Morningglory plant response rating [4, 11] | Morningglory plant response rating [4, 12] | Plant response rating, Morningglory [4, 13] | Plant response rating, Morningglory [4, 14] | Pigweed plant response rating [5, 11] | Pigweed plant response rating [5, 12] | Plant response rating, Pigweed [5, 13] | Plant response rating, Pigweed [5, 14] | Velvetleaf plant response rating [6, 11] | Velvetleaf plant response rating [6, 12] | Plant response rating, Velvetleaf [6, 13] | Plant response rating, Velvetleaf [6, 14] | Wheat plant response rating [7, 11] | Wheat plant response rating [7, 12] | Plant response rating, Wheat [7, 13] | Plant response rating, Wheat [7, 14] | Corn plant response rating (corn (Zea mays); [11]) | Corn plant response rating (corn (Zea mays); [12]) | Plant response rating, Corn (corn (Zea mays); [13]) | Plant response rating, Corn (corn (Zea mays); [14]) | Plant response rating, Rice (rice (Oryza sativa); [15]) | Plant response rating, Rice (rice (Oryza sativa); [16]) | Plant response rating, Rice (rice (Oryza sativa); [17]) | Plant response rating, Rice (rice (Oryza sativa); Flood, 31 g ai/ha) | Plant response rating, Sedge, Umbrella [8, 15] | Plant response rating, Sedge, Umbrella [8, 16] | Plant response rating, Sedge, Umbrella [8, 17] | Plant response rating, Sedge, Umbrella ([8]; Flood, 31 g ai/ha) | Plant response rating, Ducksalad [9, 15] | Plant response rating, Ducksalad [9, 16] | Plant response rating, Ducksalad [9, 17] | Plant response rating, Ducksalad ([9]; Flood, 31 g ai/ha) | Plant response rating, Barnyardgrass [10, 15] | Plant response rating, Barnyardgrass [10, 16] | Plant response rating, Barnyardgrass [10, 17] | Plant response rating, Barnyardgrass ([10]; Flood, 31 g ai/ha)

Source: patent publication US9302999B2, “Substituted triazoles as herbicides” (E. I. DU PONT DE NEMOURS AND COMPANY, priority 2012, dated 2016)
